In patent US11708422B2, “Mitigation of lung injury” (The Trustees Of The University Of Pennsylvania, priority 2016, dated 2023):
“Also recorded” adds a separate entry of the source.

Columns and labels:
RAEC monolayers [1] = assay: Stretch-associated permeability of RAEC monolayers (cyclic stretch); format: cell-based, rat; conditions: 10 min of stretch; for stretch-associated permeability: pretreated, vs vehicle controls
Experimental: As evidence that NRG1, HER2, and HER3 regulate stretch-associated increases in permeability, RAEC monolayers (N≥3-7/group) were exposed to 10 min of stretch, and compared vehicle controls (VC, black bars, FIG. 16—Appendix I) with those pretreated microRNA miR15-b to reduce NRG1 expression (FIG. 7, APPROACH—Appendix I), TAPI2 to inhibit ADAM17 and NRG1 cleavage (diagonal striped bars, FIG. 16—Appendix I), HER3 mAb to inhibit NRG1 binding (dark gray bars), or AG825 (white bars) to inhibit HER2 activation.
each outcome measure, at each timepoint), at 0, 25, 37% ASA. To assess the effects of a longer stretch duration, RAEC monolayers from additional isolations (n=7 rats) were also subjected to cyclic stretch ASA of 0% (control) or 25% for 6 hrs. […] In RAECs, results were compared to stretched and unstretched monolayers with separate treatments to evaluate downstream signaling pathway inhibition of ERK (U0126), PI3K (Wortmannin), Rac1 (EHT-1864 and ERK 1/2 siRNA [97] and LIMK1 (BMS4). Additional groups had NRG1 expression decreased by overexpressing miRNA-15b (negative regulator of NRG1), using scrambled oligonucleotide as a negative control. As a validation of or hierarchical platform, TJ expression, phosphorylation and arrangement results in PCLS were compared with RAECs. In all groups, monolayers were assigned to one of four quantitative outcome evaluations: alveolar paracellular permeability via BODIPY-oubain and streptavidin-FITC methods (see INNOVATION—Appendix I), TJ and actin arrangement by fixing RAECs and PCLSs for qualitative immunofluorescence, total and phosphorylated TJ content via Western blot, or ZO-1-bound TJ proteins by isolating protein for co-IP using ZO-1 as bait, followed by Western blotting for occludin, claudins 4, 7, and 18, and F-actin in the ZO-1 protein fraction.

RAEC monolayers [2] = assay: TJ protein dissociation from ZO-1 (co-IP with ZO-1 as bait) in stretched RAEC monolayers; format: cell-based, rat; conditions: RAECs, 10 min of cyclic stretch
Excerpt: In the extracellular domain, the TJ is composed of claudins and occludin bound to TJ proteins of neighboring cells. In the intracellular domain, the claudins and occludin bind to actin via ZO-1. […] The present study tests the hypothesis that TJ dissociation between the ZO1 and the claudins and occludin is the primary causal mechanism for HER2-HER3 mediated barrier disruption. As preliminary evidence, RAEC monolayers (N=4) that were pretreated with NRG1 cleavage inhibitor TAPI-2, HER2 inhibitor AG825, or vehicle (VC) were stretched. […] The present study also confirmed stretch-induced TJ protein dissociation in lung slices.
each outcome measure, at each timepoint), at 0, 25, 37% ASA. To assess the effects of a longer stretch duration, RAEC monolayers from additional isolations (n=7 rats) were also subjected to cyclic stretch ASA of 0% (control) or 25% for 6 hrs. For every isolation, functional relationships will be confirmed in unstretched and stretched control groups treated with AG825 (HER2 inhibitor), anti-HER3ab (HER3 inhibitor), and tempol or tiron (superoxide scavenger), and compared with unstretched RAEC and PCLS treated with PMA to activate HER3 via NRG1 shedding as a positive control. In RAECs, results were compared to stretched and unstretched monolayers with separate treatments to evaluate downstream signaling pathway inhibition of ERK (U0126), PI3K (Wortmannin), Rac1 (EHT-1864 and ERK 1/2 siRNA [97] and LIMK1 (BMS4). Additional groups had NRG1 expression decreased by overexpressing miRNA-15b (negative regulator of NRG1), using scrambled oligonucleotide as a negative control. As a validation of or hierarchical platform, TJ expression, phosphorylation and arrangement results in PCLS were compared with RAECs. In all groups, monolayers were assigned to one of four quantitative outcome evaluations: alveolar paracellular permeability via BODIPY-oubain and streptavidin-FITC methods (see INNOVATION—Appendix I), TJ and actin arrangement by fixing RAECs and PCLSs for qualitative immunofluorescence, total and phosphorylated TJ content via Western blot, or ZO-1-bound TJ proteins by isolating protein for co-IP using ZO-1 as bait, followed by Western blotting for occludin, claudins 4, 7, and 18, and F-actin in the ZO-1 protein fraction.

rodent model of VILI = assay: In vivo rodent model of VILI (large tidal volume mechanical ventilation); design: species or system rat; conditions: rats, Vt=25 ml/kg for 4 hrs, PEEP=0, AG825 1.67 mg/kg/day IP, 3 days
Experimental: Ventilated rats received one of […] treatments, intratracheal TAPI2 (used in vivo to inhibit NRG1 sheddase ADAM17) or […] AG825 or intravenous trastuzumab (to inhibit HER2), or will serve as ventilated vehicle-treated controls. Treatment windows were varied from 3 days prior ventilation to concurrent application, to identify an optimal, clinically-relevant therapeutic dose and timing. Dynamic compliance will be measured every 30 min. All animals were injected with FITC-albumin prior to ventilation, and alveolar permeability assessed prior to sacrifice by quantifying fluorescence of bronchoalveolar lavage (BAL) fluid normalized to serum fluorescence. Lungs were formalin-fixed after BAL, and hematoxylin/eosin stained sections were evaluated for hyaline membrane formation, interstitial edema, margination and infiltration of neutrophils, as well as intra-alveolar and perivascular hemorrhage. Compliance, permeability, and lung histology were compared across groups.

[3] = test system: mice treated with bleomycin to induce lung injury; conditions: relative to untreated mice; cited from earlier work

COc1cc(/C=C(\C#N)C(N)=O)cc(CSc2nc3ccccc3s2)c1O [AG825]
barrier properties vs. unstretched VC (RAEC monolayers [1]): maintained barrier properties at unstretched levels
stretch-associated permeability (RAEC monolayers [1]): significantly reduced stretch-associated permeability
TJ dissociation with stretch (RAEC monolayers [2]): reduces stretch-induced tight junction dissociation; also recorded: prevented
levels of TJ bound to ZO-1 after stretch vs unstretched controls (RAEC monolayers [2]): equal or greater after stretch than unstretched controls
protection against VILI (rodent model of VILI): dramatically protects against VILI
lung compliance (rodent model of VILI; 1.67 mg/kg/day): preserves lung compliance; also recorded: significant improvements in lung compliance
permeability (barrier properties) in vivo (rodent model of VILI; 1.67 mg/kg/day): preserves barrier properties/moderates unwanted permeability; also recorded: significant improvements in lung compliance and permeability

CC(C)C[C@H](CC(=O)NO)C(=O)N[C@H](C(=O)N[C@@H](C)C(=O)NCCN)C(C)(C)C [TAPI2]
stretch-associated permeability (RAEC monolayers [1]): significantly reduced stretch-associated permeability
TJ dissociation with stretch (RAEC monolayers [2]): reduces stretch-induced tight junction dissociation; also recorded: prevented
levels of TJ bound to ZO-1 after stretch vs unstretched controls (RAEC monolayers [2]): equal or greater after stretch than unstretched controls
alveolar protein content [3]: decreased alveolar protein content
